{"source": "patent US20060128810A1", "about": "“Remedies for allergic diseases” (Kyoto University, priority 2002, published 2006)", "key": {"[1]": {"test_system": "OVA-sensitized mouse asthma model", "experiment": "OVA-sensitized mouse asthma model, number of inflammatory cells in BALF", "assay_type": "in vivo, mouse (C57/BL6)", "details": "subcutaneous; for neutrophil number in BALF: FIG. 2", "source_text": "An asthma reaction was induced using a wild-type mouse (C57/BL6) that had previously been sensitized with an antigen of OVA twice (day 0 and day 12) by inhalation sensitization at intervals of four days a total of three times (day 22, day 26, and day 30). Subsequently, the change in the number of inflammatory cells in BALF that was an indicator of an allergic reaction was examined.\nThat is, a compound having an agonistic activity to EP3 receptor is effective in therapy of an allergic disease such as asthma, and a selective agonistic compound to EP3 receptor can be expected to induce a more remarkable therapeutic effect."}, "[2]": {"test_system": "extracted lung of a sensitized wild-type mouse", "experiment": "Histamine and LT release from extracted lung of sensitized wild-type mouse by in vitro antigen stimulation", "experimental": "The inventors of the present invention have studied on involvement of EP3 receptor in allergy reactions using the method already reported in a literature (Science, 287, 2013-(2000)). Specifically, the asthma condition was induced by inhalation of ovalbumin (hereinafter, abbreviated as OVA) in an EP3 receptor-deficient mouse, and the lung condition was analyzed. […] In addition, the suppression of the amount of histamine released from the sensitized lung by the agonist for the EP3 receptor causes only improvement of the portion enhanced by indomethacin. […] The inventors of the present invention have analyzed an EP3 (one of the PGE2 receptor subtypes) gene-deficient mouse and have already elucidated that EP3 is involved in crisis of an allergic reaction from the results of significant increase in the amount of infiltrated eosinophilics in a bronchoalveolar lavage fluid (hereinafter, abbreviated as BALF), and more significant increase in the number of infiltrated cells into a lung tissue and in the amount of Th2 cytokine in the mouse. Furthermore, they have found out that the amount of a chemical mediator that is released by in vitro antigenic stimulation of the lung of a sensitized wild-type mouse is increased by indomethacin which is a PGH-producing enzyme (cyclooxygenase) inhibitor and is suppressed by an agonist for EP3 receptor. […]"}, "[3]": {"details": "10 μg/kg twice a day, day 22 to day 33, FIG. 1"}, "[4]": {"details": "10 μg/kg twice a day, day 22 to day 33"}}, "data": [{"smiles": "CCCCC[C@@H](/C=C/[C@H]1[C@H](OC)CC(=O)[C@@H]1C/C=C\\CCCC(=O)O)OC", "note": "[compound (I-1), 11α,15α-dimethoxy-9-oxoprosta-5Z,13E-dienoic acid]", "values": [{"measurement": "eosinophil number in BALF", "setting": "[1]; [3]", "value": "decreased significantly"}, {"measurement": "neutrophil number in BALF", "setting": "[1]; [4]", "value": "decreased significantly"}]}, {"smiles": "CCCCC(C)(C)[C@H](O)/C=C/[C@H]1[C@H](O)CC(=O)[C@@H]1C/C=C\\CCCC(=O)O", "note": "[dmPGE2, 16,16-dimethyl PGE2]", "values": [{"measurement": "eosinophil number in BALF", "setting": "[1]; [3]", "value": "no significant effect"}, {"measurement": "neutrophil number in BALF", "setting": "[1]; [4]", "value": "no significant effect"}, {"measurement": "eosinophil number in BALF", "setting": "[1]; 200 μg/kg twice a day, FIG. 3", "value": "significant effect"}]}, {"smiles": "COc1ccc2c(c1)c(CC(=O)O)c(C)n2C(=O)c1ccc(Cl)cc1", "note": "[indomethacin]", "values": [{"measurement": "amount of LT released from the extracted lung", "setting": "[2]", "value": "increase"}, {"measurement": "amount of histamine released from the extracted lung", "setting": "[2]", "value": "increase"}]}]}
